Test [1] addresses T1, beta-catenin/TCF4 engagement (Homo sapiens, UniProt P35222).
T1 construct: expressed in transfected cells; host or cells: HEK293
T1 sequence (P35222 1-781): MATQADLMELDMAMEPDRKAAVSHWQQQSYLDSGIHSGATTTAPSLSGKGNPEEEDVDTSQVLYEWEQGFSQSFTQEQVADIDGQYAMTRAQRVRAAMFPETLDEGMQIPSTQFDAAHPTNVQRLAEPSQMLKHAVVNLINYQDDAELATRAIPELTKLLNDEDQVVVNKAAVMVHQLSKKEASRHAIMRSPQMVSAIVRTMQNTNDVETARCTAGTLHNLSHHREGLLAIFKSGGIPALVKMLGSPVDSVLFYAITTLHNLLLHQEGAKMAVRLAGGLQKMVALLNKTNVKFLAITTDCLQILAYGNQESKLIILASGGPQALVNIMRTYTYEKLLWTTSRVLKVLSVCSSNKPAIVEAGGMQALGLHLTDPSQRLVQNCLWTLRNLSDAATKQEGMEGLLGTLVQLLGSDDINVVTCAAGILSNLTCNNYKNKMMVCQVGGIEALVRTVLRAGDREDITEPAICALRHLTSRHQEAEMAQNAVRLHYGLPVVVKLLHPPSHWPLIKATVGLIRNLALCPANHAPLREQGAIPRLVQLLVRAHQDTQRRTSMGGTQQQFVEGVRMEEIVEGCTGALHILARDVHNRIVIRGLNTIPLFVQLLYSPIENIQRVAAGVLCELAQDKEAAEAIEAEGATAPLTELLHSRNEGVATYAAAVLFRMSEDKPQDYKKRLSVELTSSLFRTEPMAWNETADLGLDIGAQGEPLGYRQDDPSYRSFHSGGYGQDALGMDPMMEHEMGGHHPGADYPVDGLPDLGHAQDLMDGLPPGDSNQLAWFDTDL
Kind of test: Nano-BRET target engagement assay (B-cat-Halo & TCF4-Luc in HEK293 cells). The format is cell-based. As to conditions: read-out: NanoBRET Abs IC50.

In test [2] the target is T2, full-length beta-Catenin (Uniprot ID P35222) (Homo sapiens, UniProt P35222).
T2 construct: 10 nM full-length beta-Catenin (Uniprot ID P35222)
T2 sequence (P35222 1-781): T1 sequence (P35222 1-781)
Kind of test: Fluorescence polarization IC50 (beta-catenin / 5FAM-TCF4 10-53 competition). Format: binding. The settings on record: read-out: beta-Catenin FP IC50.

This note sets out measurements from patent US20240116985A1, “STAPLED PEPTIDES AND METHODS THEREOF” (priority 2020, published 2024).

By IC50 is commonly meant the midpoint of a concentration-inhibition curve.

Where two headings read alike, the source gives them in different places. A value given as a limit tells only on which side of the number the result lay.

As to `CC(=O)N1CCC[C@]12CC=CCC1(CC=CCCCCCOC(=O)N3CC[C@](C(=O)N[C@@H](Cc4ccsc4)C(=O)N[C@@H](Cc4csc5ccccc45)C(=O)N[C@@H](CCC(N)=O)C(N)=O)(C3)NC(=O)[C@H](CC(C)C)NC(=O)[C@H](Cc3ccccc3)NC(=O)[C@H](C)NC(=O)[C@H](C)NC(=O)[C@H](CC(=O)O)NC(=O)[C@H](CC(=O)O)NC1=O)NC(=O)[C@H](CC(C)(C)C)NC(=O)[C@H](CC(=O)O)NC2=O` (single isomer, unassigned) [I-2158, Ac-PL3-Asp-Npg-B3-Asp-Asp-Ala-Ala-Phe-Leu-PyrS4-3Thi-BztA-Gln-NH2], the figures for the IC50 in test [1] and in test [2] (fluorescence polarization) were over 20000 nM and 213 nM, respectively.

As for `CC(=O)N1CCC[C@]12CC=CCC1(CC=CCCCCCOC(=O)N3CC[C@](C(=O)N[C@@H](Cc4ccsc4)C(=O)N[C@@H](Cc4csc5ccccc45)C(=O)N[C@@H](CCC(N)=O)C(N)=O)(C3)NC(=O)[C@H](CC(C)C)NC(=O)[C@H](Cc3ccccc3)NC(=O)[C@H](C)NC(=O)[C@H](C)NC(=O)[C@H](CC(=O)O)NC(=O)[C@H](CC(=O)O)NC1=O)NC(=O)[C@H](CC(C)(C)C)NC(=O)[C@H](CC(=O)O)NC2=O` (single isomer, unassigned) [I-2159, Ac-PL3-Asp-Npg-B3-Asp-Asp-Ala-Ala-Phe-Leu-PyrS4-3Thi-BztA-Gln-NH2], the IC50 in test [1] is over 20000 nM; in test [2] (fluorescence polarization), 116 nM.

Regarding `CC(=O)N1CCC[C@]12CC=CCCCC1(CCCC=CCCCOC(=O)N3CC[C@@](C(=O)N[C@@H](Cc4ccccc4Cl)C(=O)N[C@@H](Cc4csc5ccccc45)C(=O)N[C@H](CO)Cc4ccccc4)(C3)NC(=O)[C@H](CC(N)=O)NC(=O)[C@H](Cc3ccccc3)NC(=O)[C@H](C)NC(=O)[C@H](C)NC(=O)[C@H](CC(=O)O)NC(=O)[C@H](CC(=O)O)NC1=O)NC(=O)[C@H](CC(C)(C)C)NC(=O)[C@H](CC(=O)O)NC2=O` (stereo partly drawn) [I-1083, Ac-PL3-Asp-Npg-B5-Asp-Asp-Ala-Ala-Phe-Asn-PyrS2-2C1F-BztA-Pheo1], the IC50 in test [1] (absolute IC50) came out at 18800 nM; in test [2], 8 nM.

Turning to `CC(=O)N1CCC[C@]12CC=CCCCC1(CCCC=CCCCOC(=O)N3CC[C@@](C(=O)N[C@@H](Cc4ccccc4Cl)C(=O)N[C@@H](Cc4csc5ccccc45)C(=O)N[C@@H](CCO)C(N)=O)(C3)NC(=O)[C@H](CO)NC(=O)[C@H](Cc3ccccc3)NC(=O)[C@H](C)NC(=O)[C@H](C)NC(=O)[C@H](CC(=O)O)NC(=O)[C@H](CC(=O)O)NC1=O)NC(=O)[C@H](CC1CCCCC1)NC(=O)[C@H](CC(=O)O)NC2=O` (stereo partly drawn) [I-1137, Ac-PL3-Asp-Cha-B5-Asp-Asp-Ala-Ala-Phe-Ser-PyrS2-2C1F-BztA-Hse-NH2], the IC50 came to 12000 nM in test [1] (absolute IC50) and 8 nM in test [2] (fluorescence polarization).

For `CC(=O)N1CCC[C@]12CC=CCCCC1(CCCC=CCCCOC(=O)N3CC[C@@](C(=O)N[C@@H](Cc4ccccc4Cl)C(=O)N[C@@H](Cc4csc5ccccc45)C(=O)N[C@@H](CC(C)C)C(N)=O)(C3)NC(=O)[C@H](CO)NC(=O)[C@H](Cc3ccccc3)NC(=O)[C@H](C)NC(=O)[C@H](C)NC(=O)[C@H](CC(=O)O)NC(=O)[C@H](CC(=O)O)NC1=O)NC(=O)[C@H](CC1CCCCC1)NC(=O)[C@H](CC(=O)O)NC2=O` (stereo partly drawn) [I-1138, Ac-PL3-Asp-Cha-B5-Asp-Asp-Ala-Ala-Phe-Ser-PyrS2-2C1F-BztA-Leu-NH2], the IC50 was determined as 19800 nM in test [1] (absolute IC50) and 18 nM in test [2] (fluorescence polarization).

Consider `CC(=O)N1CCC[C@]12CC=CCCCC1(CCCC=CCCCOC(=O)N3CC[C@@](C(=O)N[C@@H](Cc4ccccc4Cl)C(=O)N[C@@H](Cc4csc5ccccc45)C(=O)N[C@H](C(N)=O)[C@@H](C)O)(C3)NC(=O)[C@H](CC(C)C)NC(=O)[C@H](Cc3ccccc3)NC(=O)[C@H](C)NC(=O)[C@H](C)NC(=O)[C@H](CC(=O)O)NC(=O)[C@H](CC(=O)O)NC1=O)NC(=O)[C@H](CC1CCCCC1)NC(=O)[C@H](CC(=O)O)NC2=O` (stereo partly drawn) [I-1139, Ac-PL3-Asp-Cha-B5-Asp-Asp-Ala-Ala-Phe-Leu-PyrS2-2C1F-BztA-Thr-NH2], for which the results for the IC50 in test [1] (absolute IC50) and in test [2] (fluorescence polarization) were 18000 nM and 22 nM, respectively.

As to `CC(=O)N1CCC[C@]12CC=CCCCC1(CCCC=CCCCOC(=O)N3CC[C@@](C(=O)N[C@@H](Cc4ccccc4Cl)C(=O)N[C@@H](Cc4csc5ccccc45)C(=O)N[C@@H](CCC(N)=O)C(N)=O)(C3)NC(=O)[C@H](CO)NC(=O)[C@H](Cc3ccccc3)NC(=O)[C@H](C)NC(=O)[C@H](CC(C)C)NC(=O)[C@H](CC(=O)O)NC(=O)[C@H](CC(=O)O)NC1=O)NC(=O)[C@H](Cc1ccccc1)NC(=O)[C@H](CC(=O)O)NC2=O` (stereo partly drawn) [I-1153, Ac-PL3-Asp-Phe-B5-Asp-Asp-Leu-Ala-Phe-Ser-PyrS2-2C1F-BztA-Gln-NH2], the results for the 50% inhibitory concentration (IC50) in test [1] (absolute IC50) and in test [2] (fluorescence polarization) were over 20000 nM and 12 nM, respectively.

Consider `CC(=O)N1CCC[C@]12CC=CCCCC1(CCCC=CCCCOC(=O)N3CC[C@@](C(=O)N[C@@H](Cc4ccsc4)C(=O)N[C@@H](Cc4csc5ccccc45)C(=O)N[C@@H](CO)C(N)=O)(C3)NC(=O)[C@H](CC(C)C)NC(=O)[C@H](Cc3ccccc3)NC(=O)[C@H](C)NC(=O)[C@H](C)NC(=O)[C@H]([C@@H](C)O)NC(=O)[C@H](CC(=O)O)NC1=O)NC(=O)[C@H](CC(C)(C)C)NC(=O)[C@H](CC(=O)O)NC2=O` (stereo partly drawn) [I-1171, Ac-PL3-Asp-Npg-B5-Asp-Thr-Ala-Ala-Phe-Leu-PyrS2-3Thi-BztA-Ser-NH2], for which the IC50 in test [1] (absolute IC50) amounted to 28800 nM; in test [2] (fluorescence polarization), 70 nM.

For `CC(=O)N1CCC[C@]12CC=CCCCC1(CCCC=CCCCOC(=O)N3CC[C@@](C(=O)N[C@@H](Cc4ccccc4Cl)C(=O)N[C@@H](Cc4csc5ccccc45)C(=O)N[C@@H](CO)C(N)=O)(C3)NC(=O)[C@H](CC(C)C)NC(=O)[C@H](Cc3ccccc3)NC(=O)[C@H](C)NC(=O)[C@H](C)NC(=O)[C@H]([C@@H](C)O)NC(=O)[C@H](CC(=O)O)NC1=O)NC(=O)[C@H](CC(C)(C)C)NC(=O)[C@H](CC(=O)O)NC2=O` (stereo partly drawn) [I-1172, Ac-PL3-Asp-Npg-B5-Asp-Thr-Ala-Ala-Phe-Leu-PyrS2-2C1F-BztA-Ser-NH2], the IC50 in test [1] (absolute IC50) was 19400 nM; in test [2] (fluorescence polarization), 45 nM.

For `CC(=O)N1CCC[C@]12CC=CCCCC1(CCCC=CCCCOC(=O)N3CC[C@@](C(=O)N[C@@H](Cc4ccsc4)C(=O)N[C@@H](Cc4csc5ccccc45)C(=O)N[C@@H](CCC(N)=O)C(N)=O)(C3)NC(=O)[C@H](CC(C)C)NC(=O)[C@H](Cc3ccccc3)NC(=O)C(C)(C)NC(=O)[C@H](C)NC(=O)[C@H](CC(=O)O)NC(=O)[C@H](CC(=O)O)NC1=O)NC(=O)[C@H](CC(C)(C)C)NC(=O)[C@H](CC(=O)O)NC2=O` (stereo partly drawn) [I-1178, Ac-PL3-Asp-Npg-B5-Asp-Asp-Ala-Aib-Phe-Leu-PyrS2-3Thi-BztA-Gln-NH2], the IC50 was determined as 28800 nM in test [1] (absolute IC50) and 54.5 nM in test [2] (fluorescence polarization).

`C[C@@H]1NC(=O)[C@H](C)NC(=O)[C@H](CC(=O)O)NC(=O)[C@H](CC(=O)O)NC(=O)C2(CCCC=CCCCOC(=O)N3CC[C@@](C(=O)N[C@@H](Cc4ccsc4)C(=O)N[C@@H](Cc4csc5ccccc45)C(=O)N[C@@H](CCC(N)=O)C(N)=O)(C3)NC(=O)[C@H](CC(N)=O)NC(=O)[C@H](Cc3ccccc3)NC1=O)CCCC=CC[C@]1(CCCN1S(C)(=O)=O)C(=O)N[C@@H](CC(=O)O)C(=O)N[C@@H](CC(C)(C)C)C(=O)N2` (stereo partly drawn) [I-1218, MeSO2-PL3-Asp-Npg-B5-Asp-Asp-Ala-Ala-Phe-Asn-PyrS2-3Thi-BztA-Gln-NH2]: the IC50 in test [1] (absolute IC50) is over 20000 nM; in test [2] (fluorescence polarization), 10 nM.

On to `C[C@@H]1NC(=O)[C@H](C)NC(=O)[C@H](CN(CC(=O)O)CC(F)(F)F)NC(=O)[C@H](CC(=O)O)NC(=O)C2(CCCC=CCCCOC(=O)N3CC[C@@](C(=O)N[C@@H](Cc4ccsc4)C(=O)N[C@@H](Cc4csc5ccccc45)C(=O)N[C@@H](CCC(N)=O)C(N)=O)(C3)NC(=O)[C@H](CC(N)=O)NC(=O)[C@H](Cc3ccccc3)NC1=O)CCCC=CC[C@]1(CCCN1S(C)(=O)=O)C(=O)N[C@@H](CC(=O)O)C(=O)N[C@@H](CC(C)(C)C)C(=O)N2` (stereo partly drawn) [I-1219, MeSO2-PL3-Asp-Npg-B5-Asp-TfeGA-Ala-Ala-Phe-Asn-PyrS2-3Thi-BztA-Gln-NH2], for which the IC50 is over 20000 nM in test [1] (absolute IC50) and 7 nM in test [2] (fluorescence polarization).

On to `CC(=O)N1CCC[C@]12CC=CCCCC1(CCCC=CCCCOC(=O)N3CC[C@@](C(=O)N[C@@H](Cc4ccsc4)C(=O)N[C@@H](Cc4csc5ccccc45)C(=O)N[C@@H](CCC(N)=O)C(N)=O)(C3)NC(=O)[C@H](CC(N)=O)NC(=O)[C@H](Cc3ccccc3)NC(=O)[C@H](C)NC(=O)[C@H](C)NC(=O)[C@H](CC(=O)O)NC(=O)[C@H](CC(=O)O)NC1=O)NC(=O)[C@H](CC(C)(C)C)NC(=O)[C@H](CC(N)=O)NC2=O` (stereo partly drawn) [I-1220, Ac-PL3-Asn-Npg-B5-Asp-Asp-Ala-Ala-Phe-Asn-PyrS2-3Thi-BztA-Gln-NH2], for which the results for the IC50 in test [1] (absolute IC50) and in test [2] (fluorescence polarization) were 17300 nM and 11 nM, respectively.
